Source: PubChem BioAssay (NCI)
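Results reflect a 48-hour exposure of cells in 96-well plates to compound at five concentrations. Definition used: TGI = concentration required for complete inhibition of growth.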

Key:
Experiment in all cases: NCI tumour cell line growth inhibition, 48 h
786-0 renal = tested on: 786-0 renal
HT29 colon = tested on: HT29 colon
MDA-MB-435 = tested on: MDA-MB-435
SW-620 colon = tested on: SW-620 colon
HL-60(TB) leukemia = tested on: HL-60(TB) leukemia
HS 578T breast = tested on: HS 578T breast
COLO 205 colon = tested on: COLO 205 colon
HCC-2998 colon = tested on: HCC-2998 colon
U251 CNS = tested on: U251 CNS
A549 NSCLC = tested on: A549 NSCLC
UACC-257 melanoma = tested on: UACC-257 melanoma
HOP-62 NSCLC = tested on: HOP-62 NSCLC
OVCAR-8 ovarian = tested on: OVCAR-8 ovarian
SNB-19 CNS = tested on: SNB-19 CNS
IGROV1 ovarian = tested on: IGROV1 ovarian
RPMI-8226 leukemia = tested on: RPMI-8226 leukemia
HOP-92 NSCLC = tested on: HOP-92 NSCLC
NCI-H23 lung = tested on: NCI-H23 lung
CAKI-1 renal = tested on: CAKI-1 renal
M14 melanoma = tested on: M14 melanoma
SNB-75 CNS = tested on: SNB-75 CNS
KM12 colon = tested on: KM12 colon
SF-539 CNS = tested on: SF-539 CNS
UACC-62 melanoma = tested on: UACC-62 melanoma
BT-549 breast = tested on: BT-549 breast
MDA-N = tested on: MDA-N
MCF7 breast = tested on: MCF7 breast
HCT-116 colon = tested on: HCT-116 colon
PC-3 prostate = tested on: PC-3 prostate
EKVX NSCLC = tested on: EKVX NSCLC
SF-268 CNS = tested on: SF-268 CNS
OVCAR-5 ovarian = tested on: OVCAR-5 ovarian
MALME-3M melanoma = tested on: MALME-3M melanoma
MOLT-4 leukemia = tested on: MOLT-4 leukemia
SR leukemia = tested on: SR leukemia
NCI-H522 lung = tested on: NCI-H522 lung
OVCAR-3 ovarian = tested on: OVCAR-3 ovarian
A498 renal = tested on: A498 renal
DU-145 prostate = tested on: DU-145 prostate
T-47D breast = tested on: T-47D breast
SN12C renal = tested on: SN12C renal
HCT-15 colon = tested on: HCT-15 colon
MDA-MB-231 breast = tested on: MDA-MB-231 breast
CCRF-CEM leukemia = tested on: CCRF-CEM leukemia
OVCAR-4 ovarian = tested on: OVCAR-4 ovarian
SK-MEL-5 melanoma = tested on: SK-MEL-5 melanoma
SF-295 CNS = tested on: SF-295 CNS
LOX IMVI melanoma = tested on: LOX IMVI melanoma
RXF 393 renal = tested on: RXF 393 renal
NCI/ADR-RES ovarian = tested on: NCI/ADR-RES ovarian
TK-10 renal = tested on: TK-10 renal
SK-MEL-2 melanoma = tested on: SK-MEL-2 melanoma
UO-31 renal = tested on: UO-31 renal
K-562 leukemia = tested on: K-562 leukemia
ACHN renal = tested on: ACHN renal
SK-OV-3 ovarian = tested on: SK-OV-3 ovarian
NCI-H226 lung = tested on: NCI-H226 lung
NCI-H460 lung = tested on: NCI-H460 lung
SK-MEL-28 melanoma = tested on: SK-MEL-28 melanoma

Measured: TGI

NC(=O)SCC(=O)Nc1ccc2cccc3c2c1CC3
28.3 µM: HL-60(TB) leukemia
95.9 µM: T-47D breast
42.8 µM: 786-0 renal
4.61 µM: HOP-92 NSCLC
88.7 µM: HT29 colon
37.5 µM: UACC-62 melanoma
34.6 µM: SF-539 CNS
54.4 µM: RXF 393 renal
20.5 µM: U251 CNS
24.6 µM: SW-620 colon
27.4 µM: MDA-MB-231 breast
34.3 µM: BT-549 breast
51.3 µM: UACC-257 melanoma
47.2 µM: MDA-N
21.6 µM: LOX IMVI melanoma
36 µM: HCT-116 colon
69.8 µM: TK-10 renal
59.9 µM: NCI-H23 lung
33.6 µM: MDA-MB-435
47.1 µM: SK-MEL-2 melanoma
45.6 µM: SN12C renal
52 µM: OVCAR-5 ovarian
56.8 µM: OVCAR-4 ovarian
91.9 µM: CAKI-1 renal
29.6 µM: MCF7 breast
32.9 µM: SR leukemia
44.8 µM: SF-268 CNS
63.1 µM: MOLT-4 leukemia
75.9 µM: SK-MEL-5 melanoma
49.2 µM: RPMI-8226 leukemia
44.7 µM: ACHN renal
not listed: SK-OV-3 ovarian | NCI-H226 lung | NCI-H460 lung | SK-MEL-28 melanoma
> 100 µM: all other assays above
